These results are taken from US20180370927A1, “MICROBIOCIDAL OXADIAZOLE DERIVATIVES” (SYNGENTA PARTICIPATIONS AG, priority 2015, published 2018).

For data set [1], the system named is Puccinia recondita f. Sp. Tritici. Nature of the data set: Puccinia recondita f. sp. tritici / wheat / leaf disc curative (brown rust). Type of data set: in vivo. Conditions: foliar, 200 ppm in the applied formulation, wheat leaf segments, curative (applied 1 day after inoculation), assessed 6 to 8 days after application, read-out: disease control compared to untreated control leaf disks. The gist of the method:
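Curative treatment: formulated compound in water was applied 1 day post-inoculation to spore-inoculated wheat cv. Kanzler segments held on agar. Segments stayed at 19° C and 75% relative humidity (12 h photoperiod after application), and disease control relative to untreated checks was assessed 6 to 8 days later.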

The next data set has as its system Phakopsora pachyrhizi. The data set can be described thus: Phakopsora pachyrhizi / soybean / leaf disc preventative (Asian soybean rust). Type of data set: in vivo. The note with it: foliar, 200 ppm in the applied formulation, soybean leaf disks, assessed 12 to 14 days after application, read-out: disease control compared to untreated control leaf disks. The gist of the method:
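Soybean leaf discs on water agar were sprayed with formulated compound diluted in water, then inoculated one day later with spore suspension on the lower leaf surface. Held 24-36 h dark at 20° C., 75% RH, then 12 h light/day; percent disease control versus untreated scored 12 to 14 days after application.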

The test system of data set [2] is Puccinia recondita f. Sp. Tritici. Nature of the data set: Puccinia recondita f. sp. tritici / wheat / leaf disc preventative (brown rust). It counts as in vivo. Conditions: foliar, 200 ppm in the applied formulation, wheat leaf segments, preventative, assessed 7 to 9 days after application, read-out: disease control compared to untreated control leaf disks. In a few lines: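 Wheat cv. Kanzler leaf segments on agar sprayed with formulated compound in water, inoculated with rust spores 1 day later. Incubated at 19° C, 75% rh, 12 h light/12 h dark; percent disease control versus untreated scored 7 to 9 days after application; tested at 200 ppm.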

The subject of the next data set is Uromyces viciae-Fabae. The data set can be described thus: Uromyces viciae-fabae / field bean / leaf disc preventative (faba-bean rust). It counts as in vivo. The note with it: foliar, 288 h, 100 ppm in the applied formulation, field bean leaf discs, assessed 12 days after application, read-out: disease control compared to untreated control leaf discs. As to the method:
Leaf disks or leaf segments of various plant species are cut from plants grown in a greenhouse. The cut leaf disks or segments are placed in multiwell plates (24-well format) onto water agar. The leaf disks are sprayed with a test solution before (preventative) or after (curative) inoculation. Compounds to be tested are prepared as DMSO solutions (max. 10 mg/mL) which are diluted to the appropriate concentration with 0.025% Tween20 just before spraying. The inoculated leaf disks or segments are incubated under defined conditions (temperature, relative humidity, light, etc.) according to the respective test system. A single evaluation of disease level is carried out 3 to 14 days after inoculation, depending on the pathosystem. Percent disease control relative to the untreated check leaf disks or segments is then calculated.
Example 5: Fungicidal Activity Against Uromyces viciae-Fabael Field Bean/Leaf Disc Preventative (Faba-Bean Rust)
Field bean leaf discs are placed on water agar in multiwell plates (96-well format) and 10 μL of the formulated test compound diluted in acetone and a spreader pipetted onto the leaf disc. Two hours after application leaf discs are inoculated by spraying a spore suspension on the lower leaf surface. The leaf discs are incubated in a climate cabinet at 22° C. with 18 hour days and 70% relative humidity. The activity of a compound is assessed as percent disease control compared to untreated when an appropriate level of disease damage appears in untreated check leaf disks (12 days after application).
The following compounds at 100 ppm in the applied formulation give at least 80% disease control in this test when compared to untreated control leaf discs under the same conditions, which show extensive disease development.

Data set [3] concerns Glomerella lacenarium (Colletotrichum lacenarium). Nature of the data set: Glomerella lacenarium (Colletotrichum lacenarium) liquid culture / cucumber / preventative (anthracnose). The note with it: 20 ppm in the applied formulation, liquid culture in PDB, 24° C., 3 to 4 days after application, read-out: disease control (inhibition of growth, photometric) compared to untreated control. It counts as cell-based. The gist of the method:
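At 20 ppm in the applied formulation, compounds were mixed with fungal spores in potato dextrose broth and held at 24° C. After 3–4 days, photometric growth measurement gave percent antifungal activity relative to untreated control.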

`COCCNC(=O)C(=O)Nc1ccc(-c2noc(C(F)(F)F)n2)cc1` [Compound 4.4, N-(2-methoxyethyl)-N′-[4-[5-(trifluoromethyl)-1,2,4-oxadiazol-3-yl]phenyl]oxamide]: the melting point (commonly the temperature, or range, at which the solid turns liquid) is 204 to 205 °C. For the same compound, in data set [1], the pest or weed control at 200 ppm is not below 80%. In addition, in the data set with Phakopsora pachyrhizi, the pest or weed control at 200 ppm was not below 80%. Besides, the pest or weed control at 200 ppm in data set [2] is not below 80%. Moreover, the pest or weed control at 100 ppm in the data set with Uromyces viciae-Fabae was not below 80%.
Consider `CN(C)C(=O)C(=O)Nc1ccc(-c2noc(C(F)(F)F)n2)cc1` [Compound 4.1, N′,N′-dimethyl-N-[4-[5-(trifluoromethyl)-1,2,4-oxadiazol-3-yl]phenyl]oxamide], for which the melting point was 127 to 130 °C. Also, the pest or weed control at 200 ppm in data set [1] is not below 80%. In addition, the pest or weed control at 200 ppm in the data set on Phakopsora pachyrhizi was not below 80%. Besides, the pest or weed control at 200 ppm in data set [2] is not below 80%. The inhibition (usually the drop in the measured response relative to a control, in per cent) at 20 ppm in data set [3] was not below 80%. Also, the pest or weed control at 100 ppm in the data set on Uromyces viciae-Fabae was not below 80%.
For the compound `CN(C)C(=O)C(=O)NCc1ccc(-c2noc(C(F)(F)F)n2)cc1` [Compound 4.2], the melting point was 107 to 112 °C. For the same compound, the pest or weed control at 200 ppm in data set [1] was not below 80%. Further, the pest or weed control at 200 ppm in the data set on Phakopsora pachyrhizi is not below 80%. In data set [2], the pest or weed control at 200 ppm is not below 80%. Also, the inhibition at 20 ppm in data set [3] is not below 80%. The pest or weed control at 100 ppm with Uromyces viciae-Fabae was not below 80%.
Turning to `CNC(=O)C(=O)Nc1ccc(-c2noc(C(F)(F)F)n2)cc1` [Compound 4.7, N-methyl-N′-[4-[5-(trifluoromethyl)-1,2,4-oxadiazol-3-yl]phenyl]oxamide], the melting point fell in the range of 231 to 234 °C. In data set [1], the pest or weed control at 200 ppm is not below 80%. Also, the pest or weed control at 200 ppm in the data set on Phakopsora pachyrhizi is not below 80%. In data set [2], the pest or weed control at 200 ppm is not below 80%. For the same compound, in the data set with Uromyces viciae-Fabae, the pest or weed control at 100 ppm was not below 80%.
